Structures can show the parent of a compound that is named as a salt. Residues, ends and D or L forms follow the SMILES beside them.
Columns and labels:
HGFA = biological target: T1, HGFA (Homo sapiens, UniProt Q04756); test: HGFA enzyme inhibition (published assays); assay type: biochemical
T1 sequence (Q04756 373-655): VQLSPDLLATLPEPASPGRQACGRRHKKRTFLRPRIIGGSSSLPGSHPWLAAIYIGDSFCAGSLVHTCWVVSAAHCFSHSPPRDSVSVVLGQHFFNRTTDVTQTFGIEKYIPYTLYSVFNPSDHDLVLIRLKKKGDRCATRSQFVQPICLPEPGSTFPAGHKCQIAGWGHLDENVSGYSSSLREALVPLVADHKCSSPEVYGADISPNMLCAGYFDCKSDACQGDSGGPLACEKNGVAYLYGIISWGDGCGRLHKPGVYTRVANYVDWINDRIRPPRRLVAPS

Matriptase = biological target: T2, Matriptase (Homo sapiens, UniProt Q9Y5Y6); test: Matriptase enzyme inhibition (published assays); assay type: biochemical
T2 sequence (Q9Y5Y6 1-855): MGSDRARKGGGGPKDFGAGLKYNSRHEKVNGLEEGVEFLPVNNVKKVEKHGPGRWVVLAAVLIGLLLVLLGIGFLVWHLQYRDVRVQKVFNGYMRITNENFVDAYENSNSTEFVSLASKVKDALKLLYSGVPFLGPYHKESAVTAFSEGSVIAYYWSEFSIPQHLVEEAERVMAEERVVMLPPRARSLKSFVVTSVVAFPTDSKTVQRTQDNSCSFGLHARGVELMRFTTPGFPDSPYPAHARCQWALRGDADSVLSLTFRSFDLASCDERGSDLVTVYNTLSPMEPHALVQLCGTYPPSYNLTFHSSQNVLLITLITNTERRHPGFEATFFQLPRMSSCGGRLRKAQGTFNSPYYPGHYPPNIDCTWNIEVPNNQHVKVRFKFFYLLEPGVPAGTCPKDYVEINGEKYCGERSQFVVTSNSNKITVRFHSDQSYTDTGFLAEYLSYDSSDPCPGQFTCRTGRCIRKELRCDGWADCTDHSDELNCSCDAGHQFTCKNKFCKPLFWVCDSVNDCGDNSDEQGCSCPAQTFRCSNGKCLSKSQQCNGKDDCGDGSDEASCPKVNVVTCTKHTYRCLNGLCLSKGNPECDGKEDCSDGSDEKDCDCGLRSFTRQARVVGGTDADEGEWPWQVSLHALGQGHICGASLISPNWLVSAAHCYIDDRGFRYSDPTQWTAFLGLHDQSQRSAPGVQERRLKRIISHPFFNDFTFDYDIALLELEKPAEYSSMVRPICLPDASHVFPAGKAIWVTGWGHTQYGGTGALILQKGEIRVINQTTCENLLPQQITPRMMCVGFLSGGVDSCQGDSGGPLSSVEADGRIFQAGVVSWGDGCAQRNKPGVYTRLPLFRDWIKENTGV

Factor Xa = Factor Xa (Homo sapiens, UniProt P00742); test: Factor Xa enzyme inhibition (published assays); assay type: biochemical
[1] = tested on: VSV-SARS-CoV-2-Spike protein Pseudotype virus; test: microbe, parasite or virus in culture; assay type: cell-based; settings: Vesicular stomatitis virus, Calu-3, read-out: VSV-SARS-CoV-2 Calu-3 EC50 (nM)
VSV-MERS = test: microbe, parasite or virus in culture; assay type: cell-based, MERS-CoV; settings: Middle East respiratory syndrome-related coronavirus, Calu-3, read-out: MERS VSV pseudotype Calu-3 EC50 (nM)
Cathepsin G = Cathepsin G (Homo sapiens, UniProt P08311); test: Protease profiling panel, 10-dose IC50; assay type: biochemical
Chymase = Chymase (Homo sapiens, UniProt P23946); test: Protease profiling panel, 10-dose IC50; assay type: biochemical
Thrombin = Thrombin (Homo sapiens, UniProt P00734); test: Thrombin enzyme inhibition (published assays); assay type: biochemical
wild-type SARS-CoV-2 = test: microbe, parasite or virus in culture; assay type: cell-based; settings: Severe acute respiratory syndrome coronavirus 2, Calu-3, 72 h, read-out: SARS-CoV-2 Wild-type Calu-3 IC50 (nM)
in vitro [2] = settings: mouse, plasma
in vitro [3] = settings: human, plasma
Calpain 1 = Calpain 1 (Homo sapiens, UniProt P07384); test: Protease profiling panel, 10-dose IC50; assay type: biochemical
Cathepsin B = Cathepsin B (Homo sapiens, UniProt P07858); test: Protease profiling panel, 10-dose IC50; assay type: biochemical
Cathepsin C = Cathepsin C (Homo sapiens, UniProt P53634); test: Protease profiling panel, 10-dose IC50; assay type: biochemical
Cathepsin H = Cathepsin H (Homo sapiens, UniProt P09668); test: Protease profiling panel, 10-dose IC50; assay type: biochemical
Cathepsin L = Cathepsin L (Homo sapiens, UniProt P07711); test: Protease profiling panel, 10-dose IC50; assay type: biochemical
Cathepsin S = Cathepsin S (Homo sapiens, UniProt P25774); test: Protease profiling panel, 10-dose IC50; assay type: biochemical
Cathepsin V = Cathepsin V (Homo sapiens, UniProt O60911); test: Protease profiling panel, 10-dose IC50; assay type: biochemical
Papain = Papain (Carica papaya, UniProt P00784); test: Protease profiling panel, 10-dose IC50; assay type: biochemical
Caspase 6 = Caspase 6 (Homo sapiens, UniProt P55212); test: Protease profiling panel, 10-dose IC50; assay type: biochemical
Caspase 7 = Caspase 7 (Homo sapiens, UniProt P55210); test: Protease profiling panel, 10-dose IC50; assay type: biochemical
FXa = FXa (Homo sapiens, UniProt P00742); test: Protease profiling panel, 10-dose IC50; assay type: biochemical
Kallikrein 5 = Kallikrein 5 (Homo sapiens, UniProt Q9Y337); test: Protease profiling panel, 10-dose IC50; assay type: biochemical
Kallikrein 7 = Kallikrein 7 (Homo sapiens, UniProt P49862); test: Protease profiling panel, 10-dose IC50; assay type: biochemical
Kallikrein 12 = Kallikrein 12 (Homo sapiens, UniProt Q9UKR0); test: Protease profiling panel, 10-dose IC50; assay type: biochemical
Kallikrein 13 = Kallikrein 13 (Homo sapiens, UniProt Q9UKR3); test: Protease profiling panel, 10-dose IC50; assay type: biochemical
Kallikrein 14 = Kallikrein 14 (Homo sapiens, UniProt Q9P0G3); test: Protease profiling panel, 10-dose IC50; assay type: biochemical
Matriptase 2 = Matriptase 2 (Homo sapiens, UniProt Q8IU80); test: Protease profiling panel, 10-dose IC50; assay type: biochemical; settings: values lower than 1.02E-09 M estimated from best curve
Plasma Kallikrein = Plasma Kallikrein (Homo sapiens, UniProt P03952); test: Protease profiling panel, 10-dose IC50; assay type: biochemical
Plasmin = Plasmin (Homo sapiens, UniProt P00747); test: Protease profiling panel, 10-dose IC50; assay type: biochemical
Thrombin a = Thrombin a (Homo sapiens, UniProt P00734); test: Protease profiling panel, 10-dose IC50; assay type: biochemical
Trypsin = Trypsin (Bos taurus, UniProt P00760); test: Protease profiling panel, 10-dose IC50; assay type: biochemical; settings: values lower than 1.02E-09 M estimated from best curve
Tryptase b2 = Tryptase b2 (Homo sapiens, UniProt P20231); test: Protease profiling panel, 10-dose IC50; assay type: biochemical; settings: values lower than 1.02E-09 M estimated from best curve
Tryptase g1 = Tryptase g1 (Homo sapiens, UniProt Q9NRR2); test: Protease profiling panel, 10-dose IC50; assay type: biochemical; settings: values lower than 1.02E-09 M estimated from best curve
Urokinase = Urokinase (Homo sapiens, UniProt P00749); test: Protease profiling panel, 10-dose IC50; assay type: biochemical
Caspase 1 = Caspase 1 (Homo sapiens, UniProt P29466); test: Protease profiling panel, 10-dose IC50; assay type: biochemical
Caspase 2 = Caspase 2 (Homo sapiens, UniProt P42575); test: Protease profiling panel, 10-dose IC50; assay type: biochemical
Caspase 4 = Caspase 4 (Homo sapiens, UniProt P49662); test: Protease profiling panel, 10-dose IC50; assay type: biochemical
Caspase 5 = Caspase 5 (Homo sapiens, UniProt P51878); test: Protease profiling panel, 10-dose IC50; assay type: biochemical
Caspase 8 = Caspase 8 (Homo sapiens, UniProt Q14790); test: Protease profiling panel, 10-dose IC50; assay type: biochemical
Caspase 9 = Caspase 9 (Homo sapiens, UniProt P55211); test: Protease profiling panel, 10-dose IC50; assay type: biochemical
Caspase 10 = Caspase 10 (Homo sapiens, UniProt Q92851); test: Protease profiling panel, 10-dose IC50; assay type: biochemical
Caspase 11 = Caspase 11 (Mus musculus, UniProt P70343); test: Protease profiling panel, 10-dose IC50; assay type: biochemical
Kallikrein 1 = Kallikrein 1 (Homo sapiens, UniProt P06870); test: Protease profiling panel, 10-dose IC50; assay type: biochemical
Proteinase A = assay type: biochemical
Hepsin = Hepsin (Homo sapiens, UniProt P05981); test: Hepsin enzyme inhibition (published assays); assay type: biochemical
FVIIa = FVIIa (Homo sapiens, UniProt P08709); test: Protease profiling panel, 10-dose IC50; assay type: biochemical
Caspase 14 = Caspase 14 (Homo sapiens, UniProt P31944); test: Protease profiling panel, 10-dose IC50; assay type: biochemical
TMPRSS2 protease domain = TMPRSS2 protease domain (Homo sapiens, UniProt O15393); assay type: biochemical
Sequence of TMPRSS2 protease domain (O15393 256-492): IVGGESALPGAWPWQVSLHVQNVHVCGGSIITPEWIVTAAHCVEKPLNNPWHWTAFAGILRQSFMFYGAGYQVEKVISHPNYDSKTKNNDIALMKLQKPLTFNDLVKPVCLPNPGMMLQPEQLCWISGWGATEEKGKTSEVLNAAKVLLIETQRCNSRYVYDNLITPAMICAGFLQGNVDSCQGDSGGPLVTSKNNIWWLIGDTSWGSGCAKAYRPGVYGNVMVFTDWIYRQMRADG

Sequence of Factor Xa (P00742 235-488 limits assumed): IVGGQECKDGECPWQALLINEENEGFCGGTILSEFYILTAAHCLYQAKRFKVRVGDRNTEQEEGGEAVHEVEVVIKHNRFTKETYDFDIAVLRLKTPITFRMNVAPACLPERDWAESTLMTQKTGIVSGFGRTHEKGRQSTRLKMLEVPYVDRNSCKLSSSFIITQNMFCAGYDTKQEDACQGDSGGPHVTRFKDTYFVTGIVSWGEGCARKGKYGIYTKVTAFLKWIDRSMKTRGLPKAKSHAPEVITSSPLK
Sequence of Factor Xa (P00742 41-179 partner limits assumed): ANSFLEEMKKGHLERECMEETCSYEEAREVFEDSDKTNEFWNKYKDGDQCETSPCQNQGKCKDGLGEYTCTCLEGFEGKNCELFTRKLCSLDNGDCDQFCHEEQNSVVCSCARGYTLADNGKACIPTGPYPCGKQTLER
Sequence of Calpain 1 (P07384 whole entry): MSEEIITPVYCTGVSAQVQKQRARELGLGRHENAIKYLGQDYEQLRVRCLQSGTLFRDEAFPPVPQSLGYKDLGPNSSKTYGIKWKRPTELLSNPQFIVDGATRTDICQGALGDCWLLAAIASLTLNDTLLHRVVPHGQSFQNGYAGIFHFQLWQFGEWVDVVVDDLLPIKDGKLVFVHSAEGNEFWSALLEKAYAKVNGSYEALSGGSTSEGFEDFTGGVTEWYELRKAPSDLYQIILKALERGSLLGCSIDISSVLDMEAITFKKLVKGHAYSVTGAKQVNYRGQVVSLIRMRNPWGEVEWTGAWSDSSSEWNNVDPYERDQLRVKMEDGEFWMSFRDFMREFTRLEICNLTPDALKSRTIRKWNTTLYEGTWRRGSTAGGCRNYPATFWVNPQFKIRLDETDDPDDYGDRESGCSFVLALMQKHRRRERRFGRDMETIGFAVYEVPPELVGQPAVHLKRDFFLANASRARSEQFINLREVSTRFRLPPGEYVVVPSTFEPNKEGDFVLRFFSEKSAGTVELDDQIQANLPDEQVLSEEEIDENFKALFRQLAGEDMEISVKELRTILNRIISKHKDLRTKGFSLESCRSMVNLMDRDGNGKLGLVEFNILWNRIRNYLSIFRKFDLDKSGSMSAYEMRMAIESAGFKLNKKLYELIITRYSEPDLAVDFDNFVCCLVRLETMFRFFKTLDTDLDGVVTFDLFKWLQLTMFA
Sequence of Calpain 1 (P04632 whole entry partner): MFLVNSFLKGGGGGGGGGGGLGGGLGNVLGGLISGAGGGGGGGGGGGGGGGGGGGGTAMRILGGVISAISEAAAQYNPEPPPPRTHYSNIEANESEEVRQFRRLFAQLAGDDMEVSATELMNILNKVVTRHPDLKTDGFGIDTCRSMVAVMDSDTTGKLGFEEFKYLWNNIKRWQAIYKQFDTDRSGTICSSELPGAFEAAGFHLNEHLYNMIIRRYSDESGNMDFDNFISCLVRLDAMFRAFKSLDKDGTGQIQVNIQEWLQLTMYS
Sequence of Kallikrein 7 (P49862 30-253, species assumed): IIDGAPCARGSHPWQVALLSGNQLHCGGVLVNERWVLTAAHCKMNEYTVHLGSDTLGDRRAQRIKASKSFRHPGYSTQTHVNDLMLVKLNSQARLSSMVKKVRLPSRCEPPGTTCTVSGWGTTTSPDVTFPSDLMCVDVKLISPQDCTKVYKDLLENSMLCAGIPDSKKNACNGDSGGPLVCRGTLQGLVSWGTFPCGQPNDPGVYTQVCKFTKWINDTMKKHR
Sequence of Cathepsin H (P09668 98-335, species assumed): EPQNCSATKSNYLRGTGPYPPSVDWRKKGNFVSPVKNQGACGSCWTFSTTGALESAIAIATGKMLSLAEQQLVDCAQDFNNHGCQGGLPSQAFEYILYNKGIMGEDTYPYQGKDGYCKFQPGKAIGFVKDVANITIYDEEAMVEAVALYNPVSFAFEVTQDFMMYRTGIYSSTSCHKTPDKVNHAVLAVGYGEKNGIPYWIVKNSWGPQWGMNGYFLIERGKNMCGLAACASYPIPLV
Sequence of Cathepsin S (P25774 115-331, species assumed): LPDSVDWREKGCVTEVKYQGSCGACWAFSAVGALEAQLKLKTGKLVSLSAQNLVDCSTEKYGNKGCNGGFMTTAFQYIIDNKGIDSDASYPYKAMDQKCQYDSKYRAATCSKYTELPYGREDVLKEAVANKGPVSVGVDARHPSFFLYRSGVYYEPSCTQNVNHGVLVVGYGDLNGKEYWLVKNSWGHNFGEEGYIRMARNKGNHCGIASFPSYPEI
Sequence of Caspase 7 (P55210 whole entry, species assumed): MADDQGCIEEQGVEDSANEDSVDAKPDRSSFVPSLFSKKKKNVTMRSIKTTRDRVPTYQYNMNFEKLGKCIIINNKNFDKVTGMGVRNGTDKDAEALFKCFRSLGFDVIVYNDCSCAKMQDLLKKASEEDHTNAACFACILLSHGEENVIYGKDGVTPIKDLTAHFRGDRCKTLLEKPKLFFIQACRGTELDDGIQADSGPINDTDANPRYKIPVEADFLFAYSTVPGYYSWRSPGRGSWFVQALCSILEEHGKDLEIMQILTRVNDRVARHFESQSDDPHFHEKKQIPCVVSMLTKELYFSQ
Sequence of Kallikrein 12 (Q9UKR0 18-248, species assumed): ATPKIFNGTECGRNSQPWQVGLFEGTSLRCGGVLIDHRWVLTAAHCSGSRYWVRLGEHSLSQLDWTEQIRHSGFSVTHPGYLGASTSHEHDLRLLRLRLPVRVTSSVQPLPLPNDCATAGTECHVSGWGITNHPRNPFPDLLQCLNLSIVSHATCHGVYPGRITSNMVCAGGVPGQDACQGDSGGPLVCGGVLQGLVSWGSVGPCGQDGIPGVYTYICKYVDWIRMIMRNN
Sequence of Caspase 10 (Q92851 220-521, species assumed): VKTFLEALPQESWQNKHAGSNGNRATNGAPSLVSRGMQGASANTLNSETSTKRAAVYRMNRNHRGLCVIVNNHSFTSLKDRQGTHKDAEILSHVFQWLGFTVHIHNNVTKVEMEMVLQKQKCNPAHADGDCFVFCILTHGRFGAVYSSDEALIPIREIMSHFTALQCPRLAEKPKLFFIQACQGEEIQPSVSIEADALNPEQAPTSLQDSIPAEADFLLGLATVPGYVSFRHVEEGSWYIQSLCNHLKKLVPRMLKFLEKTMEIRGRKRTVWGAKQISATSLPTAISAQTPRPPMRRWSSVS
Sequence of Cathepsin C (P53634 25-463, species assumed): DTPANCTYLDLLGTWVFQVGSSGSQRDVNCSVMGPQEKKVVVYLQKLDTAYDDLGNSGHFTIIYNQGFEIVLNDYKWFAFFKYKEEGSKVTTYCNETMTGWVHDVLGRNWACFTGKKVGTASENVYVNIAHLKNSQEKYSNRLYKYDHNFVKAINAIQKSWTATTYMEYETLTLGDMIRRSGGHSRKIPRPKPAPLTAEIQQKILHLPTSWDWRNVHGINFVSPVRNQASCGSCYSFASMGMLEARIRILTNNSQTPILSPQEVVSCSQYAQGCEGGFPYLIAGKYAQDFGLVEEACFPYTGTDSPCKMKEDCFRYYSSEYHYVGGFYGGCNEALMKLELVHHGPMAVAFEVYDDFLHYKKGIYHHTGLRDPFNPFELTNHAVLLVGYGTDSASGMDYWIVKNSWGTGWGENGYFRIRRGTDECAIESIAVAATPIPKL
Sequence of Plasma Kallikrein (P03952 391-638 limits assumed, species assumed): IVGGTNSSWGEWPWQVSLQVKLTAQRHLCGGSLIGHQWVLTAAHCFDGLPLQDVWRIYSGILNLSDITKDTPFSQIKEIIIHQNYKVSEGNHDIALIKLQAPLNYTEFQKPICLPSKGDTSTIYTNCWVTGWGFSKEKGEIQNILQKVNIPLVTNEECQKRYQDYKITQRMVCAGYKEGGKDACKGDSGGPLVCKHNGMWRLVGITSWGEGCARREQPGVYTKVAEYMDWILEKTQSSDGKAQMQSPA
Sequence of Plasma Kallikrein (P03952 20-390 partner limits assumed, species assumed): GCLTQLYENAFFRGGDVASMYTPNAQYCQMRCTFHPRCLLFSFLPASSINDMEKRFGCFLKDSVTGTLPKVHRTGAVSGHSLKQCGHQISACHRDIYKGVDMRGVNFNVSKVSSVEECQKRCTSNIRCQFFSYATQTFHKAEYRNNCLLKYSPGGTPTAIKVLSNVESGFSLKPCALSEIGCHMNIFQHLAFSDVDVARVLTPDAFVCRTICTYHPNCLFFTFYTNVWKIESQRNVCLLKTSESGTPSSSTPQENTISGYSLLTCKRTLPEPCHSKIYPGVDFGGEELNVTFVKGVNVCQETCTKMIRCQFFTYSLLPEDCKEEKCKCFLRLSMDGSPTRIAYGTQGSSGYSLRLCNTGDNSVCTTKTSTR
Sequence of Tryptase b2 (P20231 31-275): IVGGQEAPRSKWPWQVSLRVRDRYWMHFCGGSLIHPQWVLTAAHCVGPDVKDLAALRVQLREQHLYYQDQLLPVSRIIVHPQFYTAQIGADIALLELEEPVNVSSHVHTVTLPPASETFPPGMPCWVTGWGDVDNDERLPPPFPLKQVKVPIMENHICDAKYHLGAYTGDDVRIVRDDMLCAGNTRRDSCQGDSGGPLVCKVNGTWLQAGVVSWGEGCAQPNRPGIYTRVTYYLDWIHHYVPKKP
Sequence of Kallikrein 5 (Q9Y337 23-293, species assumed): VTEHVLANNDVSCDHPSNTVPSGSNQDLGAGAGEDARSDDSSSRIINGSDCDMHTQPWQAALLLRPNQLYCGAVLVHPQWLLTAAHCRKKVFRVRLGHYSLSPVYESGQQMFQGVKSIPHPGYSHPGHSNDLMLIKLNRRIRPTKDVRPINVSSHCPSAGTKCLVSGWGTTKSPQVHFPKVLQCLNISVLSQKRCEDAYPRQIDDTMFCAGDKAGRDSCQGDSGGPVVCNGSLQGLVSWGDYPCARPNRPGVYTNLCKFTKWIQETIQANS
Sequence of FXa (P00742 235-488 limits assumed): as the sequence (P00742 235-488 limits assumed) above
Sequence of FXa (P00742 41-179 partner limits assumed): as the sequence (P00742 41-179 partner limits assumed) above

## CN(C)C(=O)COC(=O)Cc1ccc(OC(=O)c2ccc(NC(=N)N)cc2)cc1 [Camostat, reference compound]
HGFA
  IC50: > 20000 nM
Matriptase
  IC50: 7 nM
Factor Xa
  IC50: > 20000 nM
[1]
  EC50: 83 nM
VSV-MERS
  EC50: 5 nM

## CC(C)C[C@H](NC(=O)[C@@H](NC(=O)N[C@@H](Cc1ccccc1)C(=O)O)[C@@H]1CCN=C(N)N1)C(=O)N[C@H](C=O)Cc1ccccc1 [Chymostatin]
Cathepsin G
  IC50: 4040 nM
Chymase
  IC50: 10.1 nM

## CC(=O)N[C@@H](CCC(N)=O)C(=O)N[C@@H](Cc1ccccc1)C(=O)N[C@@H](CCCNC(=N)N)C(=O)c1nc2ccccc2s1 [Compound 6, Ac-QFR-kbt]
HGFA
  IC50: 14 nM
Thrombin
  IC50: > 20000 nM
Factor Xa
  IC50: 1.4 nM
wild-type SARS-CoV-2
  IC50: 105 nM
In vitro [2]
  half-life: > 4.82 h
In vitro [3]
  half-life: > 4.82 h

## CC(C)C[C@H](NC(=O)[C@H]1O[C@@H]1C(=O)O)C(=O)NCCCCN=C(N)N [Compound E64, E64]
Calpain 1
  IC50: 47.1 nM
Cathepsin B
  IC50: 7.33 nM
Cathepsin C
  IC50: 1180 nM
Cathepsin H
  IC50: 35.6 nM
Cathepsin L
  IC50: 12.4 nM
Cathepsin S
  IC50: 1.73 nM
Cathepsin V
  IC50: 3.89 nM
Papain
  IC50: 0.24 nM

## CC(=O)N[C@@H](CC(=O)O)C(=O)N[C@@H](CCC(=O)O)C(=O)N[C@H](C(=O)N[C@H](C=O)CC(=O)O)C(C)C [DEVD-CHO]
Caspase 6
  IC50: 12.4 nM
Caspase 7
  IC50: 2.31 nM

## CCOC(=O)c1ccc(OC(=O)CCCCCN=C(N)N)cc1 [Gabexate mesylate]
FXa
  IC50: 1860 nM
Kallikrein 5
  IC50: 4940 nM
Kallikrein 7
  IC50: 43100 nM
Kallikrein 12
  IC50: 94.3 nM
Kallikrein 13
  IC50: 12200 nM
Kallikrein 14
  IC50: 651 nM
Matriptase 2
  IC50: 391 nM
Plasma Kallikrein
  IC50: 148 nM
Plasmin
  IC50: 265 nM
Thrombin a
  IC50: 1570 nM
Trypsin
  IC50: 30.7 nM
Tryptase b2
  IC50: 9.7 nM
Tryptase g1
  IC50: 13.3 nM
Urokinase
  IC50: 24.4 nM

## CC[C@H](C)[C@H](NC(C)=O)C(=O)N[C@@H](CCC(=O)O)C(=O)N[C@H](C(=O)N[C@H](C=O)CC(=O)O)[C@@H](C)O [IETD-CHO] (Ac-IETD-aldehyde)
Caspase 1
  IC50: 29.2 nM
Caspase 2
  IC50: 547 nM
Caspase 4
  IC50: 2130 nM
Caspase 5
  IC50: 11.5 nM
Caspase 8
  IC50: 2.83 nM
Caspase 9
  IC50: 26.4 nM
Caspase 10
  IC50: 9.17 nM
Caspase 11
  IC50: 567 nM

## CC(=O)N[C@@H](CC(C)C)C(=O)N[C@@H](CC(C)C)C(=O)N[C@H](C=O)CCCNC(=N)N [Leupeptin]
Kallikrein 1
  IC50: 4610 nM
Proteinase A
  IC50: 244000 nM

## N=C(N)c1ccc2cc(OC(=O)c3ccc(N=C(N)N)cc3)ccc2c1 [Nafamostat, reference compound]
HGFA
  IC50: 158 nM
Hepsin
  IC50: 0.9 nM
Thrombin
  IC50: 5020 nM
Factor Xa
  IC50: 4570 nM
wild-type SARS-CoV-2
  IC50: 220 nM

## N=C(N)c1ccc2nc(-c3cc(CC(=O)N[C@@H](CC(=O)O)C(=O)O)cc(-c4cc(S(N)(=O)=O)ccc4O)c3O)[nH]c2c1 [PCI 27483]
FVIIa
  IC50: 57.5 nM

## CC(=O)N[C@@H](Cc1c[nH]c2ccccc12)C(=O)N[C@@H](CCC(=O)O)C(=O)N[C@@H](Cc1cnc[nH]1)C(=O)N[C@H](C=O)CC(=O)O [WEHD-CHO] (Ac-WEHD-aldehyde)
Caspase 14
  IC50: 68.2 nM

## (MCA)-K-KARSAFA-K-(DnP)
TMPRSS2 protease domain
  Km: 0.6 ± 0.05 µM
  kcat: 0.07 s⁻¹

Source: article PMC8694051 (Proceedings of the National Academy of Sciences of the …, 2021)
